Test results taken from article PMC10385850, “Modified Hederagenin Derivatives Demonstrate Ex Vivo Anthelmintic Activity against Fasciola hepatica” (Pharmaceutics, 2023).

Tested on: F. hepatica newly excysted juveniles (NEJs), Italian strain
Experiment: Ex vivo screen against newly excysted juveniles (NEJs), phenotype and motility scoring
Type: cell-based, Fasciola hepatica
Details: 10 µM; for Average motility of 25 NEJs with 95% CI, 24 hours / Average motility of 25 NEJs with 95% CI, 48 hours / Average motility of 25 NEJs with 95% CI, 72 hours: motility score 1 good/normal to 5 no movement; for Average phenotype of 25 NEJs with 95% CI, 24 hours / Average phenotype of 25 NEJs with 95% CI, 48 hours / Average phenotype of 25 NEJs with 95% CI, 72 hours: ultrastructure score 1 normal to 6 dead or dissolved; for Activity against NEJs (first screen), in words: 72 h co-culture
Description: […] The NEJs were excysted from metacercariae and assayed at 10 μM (in 0.1% DMSO) final concentration alongside negative (0.1% DMSO) and positive (10 μM TCBZ, in 0.1% DMSO) controls as previously described. The MC and IVL compound series were screened separately.
The motility (1—good/normal; 2—moderate; 3—low; 4—very little; 5—no movement) and phenotypic (ultrastructural changes) scores were noted according to a previously described scoring matrix (Figure S1 and Table S2).

| SMILES | Average motility of 25 NEJs with 95% CI, 24 hours | Average phenotype of 25 NEJs with 95% CI, 24 hours | Average motility of 25 NEJs with 95% CI, 48 hours | Average phenotype of 25 NEJs with 95% CI, 48 hours | Average motility of 25 NEJs with 95% CI, 72 hours | Average phenotype of 25 NEJs with 95% CI, 72 hours | Activity against NEJs (first screen), in words |
| --- | --- | --- | --- | --- | --- | --- | --- |
| CC1(C)CC[C@]2(N=C=O)CC[C@]3(C)C(=CCC4[C@@]5(C)CCC6OC(C)(C)OC[C@@]6(C)C5CC[C@]43C)C2C1 (stereo partly drawn) [MC015, (4aR,6aR,6bS,8aS,14bR)-8a-Isocyanato-2,2,4a,6a,6b,11,11,14b-octamethyl-4a,4b,5,6,6a,6b,7,8,8a,9, 10,11,12,12a,14,14a,14b,15,16,16a-eicosahydro-4H-piceno[3,4-d][1,3]dioxine] | 2.56 (2;3) | 2.24 (1.6;2.8) | 3.08 (2.4;3.6) | 2.84 (2;3.5) | 3.12 (2.4;3.7) | 3.56 (2.7;4.3) | None of the three passed the first screen |
| CC1(C)CC[C@]2(NC(=O)NCc3ccccc3)CC[C@]3(C)C(=CCC4[C@@]5(C)CCC6OC(C)(C)OC[C@@]6(C)C5CC[C@]43C)C2C1 (stereo partly drawn) [MC017, 1-Benzyl-3-((4aR,6aR,6bS,8aS,14bR)-2,2,4a,6a,6b,11,11,14b-octamethyl-4a,5,6,6a,6b,7,8,9,10,11,12,12a,14,14a,14b,15,16,16a-octadecahydro-4H-piceno[3,4-d][1,3]dioxin-8a(4bH)-yl)urea] | 4.12 (3.7;4.5) | 3.28 (2.5;4) | 4.0 (3.5; 4.4) | 4.04 (3.3;4.6) | 3.92 (3.3; 4.4) | 4.12 (3.4;4.7) | – |
| CCCCOC(=O)N[C@]12CCC(C)(C)CC1C1=CCC3[C@@]4(C)CCC5OC(C)(C)OC[C@@]5(C)C4CC[C@@]3(C)[C@]1(C)CC2 (stereo partly drawn) [MC019, Butyl ((4aR,6aR,6bS,8aS,14bR)-2,2,4a,6a,6b,11,11,14b-octamethyl-4a,5,6,6a,6b,7,8,9,10, 11,12,12a,14, 14a,14b,15,16,16a-octadecahydro-4H-piceno[3,4-d][1,3]dioxin-8a(4bH)-yl)carbamate] | 2.24 (1.7;2.7) | 2.40 (1.8;2.9) | 4.00 (3.7;4.2) | 3.20 (2.6;3.7) | 4.36 (3.9;4.7) | 3.40 (2.7;4) | inactive against NEJs |
| CCCNC(=O)N[C@]12CCC(C)(C)CC1C1=CCC3[C@@]4(C)CCC5OC(C)(C)OC[C@@]5(C)C4CC[C@@]3(C)[C@]1(C)CC2 (stereo partly drawn) [MC022, 1-((4aR,6aR,6bS,8aS,14bR)-2,2,4a,6a,6b,11,11,14b-Octamethyl-4a,5,6,6a,6b,7,8,9,10,11, 12,12a,14,14a, 14b,15,16,16a-octadecahydro-4H-piceno[3,4-d][1,3]dioxin-8a(4bH)-yl)-3-propylurea] | 2.68 (1.9;3.4) | 4.60 (4.2;4.9) | 4.12 (3.7;4.4) | 5.08 (4.7;5.4) | 4.96 (4.8;5) | 5.88 (5.6;6.1) | inactive against NEJs |
| COC(=O)[C@@H](NC(=O)N[C@]12CCC(C)(C)CC1C1=CCC3[C@@]4(C)CCC5OC(C)(C)OC[C@@]5(C)C4CC[C@@]3(C)[C@]1(C)CC2)C(C)C (stereo partly drawn) [MC027, Methyl (((4aR,6aR,6bS,8aS,14bR)-2,2,4a,6a,6b,11,11,14b-octamethyl-4a,5,6,6a,6b,7,8,9,10, 11,12,12a, 14,14a,14b,15,16,16a-octadecahydro-4H-piceno[3,4-d][1,3]dioxin-8a(4bH)-yl)-carbamoyl)-L-valinate] | 3.48 (2.9;3.9) | 3.32 (2.5;4.1) | 4.72 (4.4;4.9) | 4.64 (3.9;5.3) | 4.76 (4.4;5) | 5.48 (4.9;5.9) | – |
